We go through 10 molecules from ChEMBL document CHEMBL4665735, “Discovery of a d-pro-lys peptidomimetic inhibitor of MMP9: Addressing the gelatinase selectivity beyond S1' subsite” (Bioorg Med Chem Lett, 2020).

The structures appear in SMILES notation.

For test [1], the target named is 72 kDa type IV collagenase (Homo sapiens, UniProt P08253). Kind of test: Inhibition of MMP2 (unknown origin) using Mca-Lys-Pro-Leu-GlyLeu-Dpa-Ala-Arg-NH2 as substrate by fluorometric assay.
The target of test [2] is Matrix metalloproteinase-9 (Homo sapiens, UniProt P14780). Description: Inhibition of MMP9 (unknown origin) using Mca-Lys-Pro-Leu-GlyLeu-Dpa-Ala-Arg-NH2 as substrate by fluorometric assay.
Matrix metalloproteinase-9, sequence (P14780 whole entry): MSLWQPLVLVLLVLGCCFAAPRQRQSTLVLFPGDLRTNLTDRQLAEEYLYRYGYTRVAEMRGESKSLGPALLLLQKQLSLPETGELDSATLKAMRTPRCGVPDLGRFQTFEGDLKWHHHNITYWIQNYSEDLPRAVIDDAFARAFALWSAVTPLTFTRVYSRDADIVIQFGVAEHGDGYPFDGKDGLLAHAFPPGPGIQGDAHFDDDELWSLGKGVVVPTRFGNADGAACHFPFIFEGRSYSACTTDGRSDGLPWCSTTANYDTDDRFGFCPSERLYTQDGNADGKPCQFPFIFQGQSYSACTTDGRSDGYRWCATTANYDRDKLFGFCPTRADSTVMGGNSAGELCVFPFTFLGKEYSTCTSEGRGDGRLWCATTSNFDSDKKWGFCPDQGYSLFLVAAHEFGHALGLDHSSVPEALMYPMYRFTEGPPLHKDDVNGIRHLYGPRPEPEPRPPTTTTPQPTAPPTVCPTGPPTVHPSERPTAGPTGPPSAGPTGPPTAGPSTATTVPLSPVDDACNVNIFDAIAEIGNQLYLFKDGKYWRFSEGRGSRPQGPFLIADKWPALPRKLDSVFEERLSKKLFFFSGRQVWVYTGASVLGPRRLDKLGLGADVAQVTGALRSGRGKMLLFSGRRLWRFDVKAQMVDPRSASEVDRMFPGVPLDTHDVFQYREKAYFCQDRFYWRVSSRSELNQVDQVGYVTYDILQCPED

72 kDa type IV collagenase, sequence (P08253 whole entry): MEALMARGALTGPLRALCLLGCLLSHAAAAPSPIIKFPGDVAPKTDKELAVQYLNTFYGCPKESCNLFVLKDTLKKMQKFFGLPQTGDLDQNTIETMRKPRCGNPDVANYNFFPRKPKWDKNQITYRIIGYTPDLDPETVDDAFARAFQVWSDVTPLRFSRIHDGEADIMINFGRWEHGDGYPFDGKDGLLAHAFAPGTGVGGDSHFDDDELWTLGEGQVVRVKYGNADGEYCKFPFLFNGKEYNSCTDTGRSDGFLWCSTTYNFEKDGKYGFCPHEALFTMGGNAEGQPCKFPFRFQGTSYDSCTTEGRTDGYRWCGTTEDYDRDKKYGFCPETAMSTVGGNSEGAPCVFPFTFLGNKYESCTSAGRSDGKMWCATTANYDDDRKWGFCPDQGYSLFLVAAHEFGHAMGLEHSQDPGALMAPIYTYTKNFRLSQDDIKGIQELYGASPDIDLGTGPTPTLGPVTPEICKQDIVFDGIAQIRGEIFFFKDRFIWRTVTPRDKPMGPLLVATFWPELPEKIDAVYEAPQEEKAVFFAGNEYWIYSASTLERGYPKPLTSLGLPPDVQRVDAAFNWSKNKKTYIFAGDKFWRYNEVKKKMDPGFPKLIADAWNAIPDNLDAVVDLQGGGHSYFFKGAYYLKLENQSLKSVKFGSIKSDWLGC

On to `COc1ccc(S(=O)(=O)N2C[C@H](NC(=O)CCCNC(=O)OC(C)(C)C)C[C@@H]2C(=O)NO)cc1`, for which the IC50 in test [1] amounted to 91 nM; in test [2], 49 nM.

In test [2], `COc1ccc(S(=O)(=O)N2CCC[C@@H]2C(=O)NO)cc1` registered an IC50 of 22 nM.

As for `COc1ccc(S(=O)(=O)N2C[C@H](NC(=O)[C@@H](N)CCCCN)C[C@@H]2C(=O)NO)cc1`, the IC50 in test [1] turned out to be 1260 nM; in test [2], 5.7 nM.

Turning to `COc1ccc(S(=O)(=O)N2C[C@H](NC(=O)[C@H](CCCCN)NC(=O)OC(C)(C)C)C[C@@H]2C(=O)NO)cc1`, the IC50 in test [1] is 432 nM; in test [2], 27 nM.

In the case of `COc1ccc(S(=O)(=O)N2C[C@H](NC(=O)CCCN)C[C@@H]2C(=O)NO)cc1`, the IC50 in test [1] was found to be 302 nM; in test [2] it was 53 nM.

Turning to `COc1ccc(S(=O)(=O)N2C[C@H](NC(=O)[C@@H](N)CCCN)C[C@@H]2C(=O)NO)cc1`, the IC50 in test [1] turned out to be 15 nM; in test [2], 154 nM.

For `COc1ccc(S(=O)(=O)N2C[C@H](NC(=O)[C@H](CCCN)NC(=O)OC(C)(C)C)C[C@@H]2C(=O)NO)cc1`, the figures for the IC50 in test [1] and in test [2] were 1320 nM and 3420 nM, respectively.

As for `COc1ccc(S(=O)(=O)N2C[C@H](NC(=O)C(C)(C)C)C[C@@H]2C(=O)NO)cc1`, the IC50 in test [1] came to 26 nM; in test [2] it was 13 nM.

As for `CCCC[C@H](N)C(=O)N[C@@H]1C[C@H](C(=O)NO)N(S(=O)(=O)c2ccc(OC)cc2)C1`, the IC50 in test [1] is 62 nM; in test [2] it was 98 nM.

For the molecule `CCCC[C@H](NC(=O)OC(C)(C)C)C(=O)N[C@@H]1C[C@H](C(=O)NO)N(S(=O)(=O)c2ccc(OC)cc2)C1`, the IC50 in test [1] stood at 87 nM; in test [2], 131 nM.
